Laboratory results taken from patent US20240239854A1, “ANTIMICROBIAL PEPTIDES AND MODIFICATIONS THEREOF” (Donald Danforth Plant Science Center, priority 2022, published 2024).
≈ marks a conversion by molar mass, not a printed value.

Experiments:
Format in all cases: cell-based
[1] = system: Zymoseptoria tritici IPO323
Botrytis cinerea T4 = conditions: for MIC, in-vitro antifungal activity against B. cinerea: 48 hours
[2] = system: Fusarium graminearum PH-1; conditions: for MIC, in-vitro antifungal activity against F. graminearum: F. graminearum PH-1, 48 hours; for F. graminearum PH-1 MIC Day1: MIC Day 1, 96-well plate, resazurin cell viability

Molecule	MIC against Z. tritici on day 1 [1] [µM]	MIC against Z. tritici on day 7 [1] [µM]	MIC against Z. tritici on day 14 [1] [µM]	Z. tritici IPO323 MIC Day 1 [1] [µM]	Z. tritici IPO323 MIC Day 7 [1] [µM]	Z. tritici IPO323 MIC Day 14 [1] [µM]	B. cinerea T4 MIC Day1 (Botrytis cinerea T4) [µM]	MIC, in-vitro antifungal activity against B. cinerea (Botrytis cinerea T4) [µM]	MIC, in-vitro antifungal activity against F. graminearum [2] [µM]	F. graminearum PH-1 MIC Day1 [2] [µM]
C[C@@H]1[C@H](O)[C@@H](C)/C=C/C=C/C=C/C=C/C=C/C=C/C=C/[C@H](O[C@@H]2O[C@H](C)[C@@H](O)[C@H](N)[C@@H]2O)C[C@@H]2O[C@](O)(C[C@@H](O)C[C@@H](O)[C@H](O)CC[C@@H](O)C[C@@H](O)CC(=O)O[C@H]1C)C[C@H](O)[C@H]2C(=O)O [Amphotericin-B, reference compound]	0.84 (≈ 0.776 µg/mL)	5.44 (≈ 5.03 µg/mL)	8.92 (≈ 8.24 µg/mL)	0.84	5.44	8.92	3	3 (≈ 2.77 µg/mL)	6 (≈ 5.54 µg/mL)	6
PD81.1.1: Pinus sylvestris wild-type defensin SEQ ID NO: 534 with N-terminal alanine, expressed in Pichia pastoris (RMCKTPSGKFKGYCVSSTNCKNVCRTEGFPTGSCDFHVASRKCYCYKPC; N-terminal alanine added; listed as Pinus sylvestris)				0.5	0.75	3	1	1		1.5
PD82.1.1: Pinus sylvestris wild-type defensin SEQ ID NO: 538 with N-terminal alanine, expressed in Pichia pastoris (RTCLSKSHRFHGYCVRSSSCKEICQTERFLSGECRHTHLGNRRCFCEKPC; N-terminal alanine added; listed as Pinus sylvestris)				0.625	2	3.5	1.125			1.5
PD83.1.1: Eucalyptus grandis wild-type defensin SEQ ID NO: 542 with N-terminal alanine, expressed in Pichia pastoris (RMCESQSHKFHGLCMSDRTCVVVCKEEDFDDGKCRGFRHRCFCRKPC; N-terminal alanine added; listed as Eucalyptus grandis)							>12			>12
PD84.1.1: Striga asiatica wild-type defensin SEQ ID NO: 546 with N-terminal alanine, expressed in Pichia pastoris (KICEYKSERFWGVCLSDIKCADVCKDESFESGDCQGLRRRCMCYNHC; N-terminal alanine added; listed as Striga asiatica)				>12	>12	>12	>12			>12
PD85.1.1: Panax ginseng wild-type defensin SEQ ID NO: 551 with N-terminal alanine, expressed in Pichia pastoris (KLCEKASLTWSGKCGNTQNCDKQCQNWESAKHGACHKRPTWKCFCYSDC; N-terminal alanine added; Panax ginseng)				0.625	1.75	10	>12			>12
PD86.1.1: Erythranthe guttata wild-type defensin SEQ ID NO: 555 with N-terminal alanine, expressed in Pichia pastoris (SLCETPSRYFNGICFSRRNCGAICEKEGFSSGRCKAFKCVCGKDC; N-terminal alanine added; listed as Erythranthe guttata)				7	12	>12	12			6
PD87.1.1: Raphanus sativus wild-type defensin SEQ ID NO: 560 with N-terminal alanine, expressed in Pichia pastoris (KLCQRPSGTWSGVCGNNNACKNQCIRLEKARHGSCNYVFPAHKCICYFPC; N-terminal alanine; listed as Raphanus sativus)				0.375	1.5	2.5	0.375		0.75	0.75
PD88.1.1: Fraxinus excelsior wild-type defensin SEQ ID NO: 565 with N-terminal alanine, expressed in Pichia pastoris (KHCAKLSKGWHGFCAPHKCSRYCIHHEGAYDGACLKHHHSKHIGCYCYYRHC; N-terminal alanine; Fraxinus excelsior)				1.5	3	4	0.75			>12
PD89.1.2: Crambe maritima wild-type defensin SEQ ID NO: 569 with N-terminal alanine, expressed in Pichia pastoris (KLCRKPSGTWSGLCANSDSCRKQCINLEKAKDGSCKYKFPAHKCFCYY; N-terminal alanine; listed as Crambe maritima)				1.5	6	12	2.5			12
PD92.1.1: Trifolium pratense wild-type defensin SEQ ID NO: 583 with N-terminal alanine, expressed in Pichia pastoris (RKCESKRRWIYGNCLSDEKCASDCLVKGFLFGKCRGYDNRCYCKKPRC; N-terminal alanine; Trifolium pratense)				0.75	1.75	2.5	3			3
PD93.1.1: Fragaria vesca wild-type defensin SEQ ID NO: 588 with N-terminal alanine, expressed in Pichia pastoris (KICEVPSKTFKGLCVKDRNCVVRCHSEGYGNGKCSHVRRQCMCLKICD; N-terminal alanine; listed as Fragaria vesca)				2	5	8	6			>12
PD94.1.1: Solanum lycopersicum wild-type defensin SEQ ID NO: 593 with N-terminal alanine, expressed in Pichia pastoris (KLCQYHSETFHGVCVTGNNCNRHCQRENFEGGRCHGIRHYRCVCYRTC; N-terminal alanine; listed as Solanum lycopersicum)				>12	>12	>12	>12			>12
PD95.1.1: Mimulus guttatus wild-type defensin SEQ ID NO: 598 with N-terminal alanine, expressed in Pichia pastoris (RHCESPSHRFKGICVRKSNCAAICQTEGFSSGKCRGFRSRCVCIKHC; N-terminal alanine; listed as Mimulus guttatus)							0.75		0.75	0.75
PD96.1.1: Thlaspi arvense wild-type defensin SEQ ID NO: 603 with N-terminal alanine, expressed in Pichia pastoris (RMCESKSHEFKGFCTKWRICRDVCITEGFTDGGCHGVLRHCVCKKPCLLSN; N-terminal alanine; Thlaspi arvense)				2.5	10	>12	6		0.75	0.75
PD99.1.1: Theobroma cacao wild-type defensin SEQ ID NO: 616 with N-terminal alanine, expressed in Pichia pastoris (KLCQKRSKTWTGPCIKTKNCDHQCRKWEKAQHGACHWQWPGFACFCYVNC; N-terminal alanine; Theobroma cacao)							0.75		0.75	0.75
PD100.1.1: Prunus armeniaca wild-type defensin SEQ ID NO: 620 with N-terminal alanine, expressed in Pichia pastoris (QRGCKQASKSMTTCTAHPECDKKCKGEKAKMGLCRADGPKGKKCWCYMC; N-terminal alanine added; listed as Prunus armeniaca)				1	4	8	6			6
PD114.1.1: Lupinus albus wild-type defensin SEQ ID NO: 679 with N-terminal alanine, expressed in Pichia pastoris (RTCKSKSQRYKGSCYSDNNCAIICEGEGFTGGKCHGFFCKCWCKRPCL; N-terminal alanine added; listed as Lupinus albus)							>12			>12
PD120.1.1: Setaria italica wild-type defensin SEQ ID NO: 706 with N-terminal alanine, expressed in Pichia pastoris (DRCETHSRTYKGRCNNHNCWSICITEGNTGGFCKGTLLLKCMCTSEC; N-terminal alanine added; listed as Setaria italica)							>12			12
